Results reported in patent publication US7423008B2, “Derivatives of mithramycin and methods of making and uses thereof” (University of Kentucky Research Foundation, priority 2004, dated 2008).

Key:
Lung (NCI-H460) = experiment: Proliferation inhibition assay (sulforhodamin B uptake), lung cells; type: cell-based
Procedure: (§1) The experiment was performed by Biotecon, Berlin. It measures the uptake of sulforhodamin B (SRB), which is dependent on the cellular protein quantities, and can be performed in 96-well microtiter plates according to the protocol published by Boyd et al. (NCI). The SRB assay is a rapid and sensitive method to measure drug-induced cytotoxicity. Briefly, cells will be incubated with and without drug for 72 hours (drugs will be added after 24 hours), fixed with TCA (trichloroacetic acid), and stained for 30 minutes using a 0.4% (w/v) SRB solution in […]. Cultures will then be rinsed with 1% acetic acid, residual wash solution will be removed and air-dried. Bound dye will be solubilized with 10 mM unbuffered Tris base (pH 10.5) for 5 min., and the optical density (OD) will be measured with amicrotiter plate reader at 564 nm. (Skehan, P. et al., “New calorimetric cytotoxicity assay for anticancer-drug screening,” Journal of the National Cancer Institute, 1990. 82(13): p. 1107-1112).

Breast (MCF-7) = experiment: Proliferation inhibition assay (sulforhodamin B uptake), breast cells; type: cell-based; conditions: concentration 1 × 10^−5 molar
Procedure: as §1

CNS (SF-268) = experiment: Proliferation inhibition assay (sulforhodamin B uptake), CNS cells; type: cell-based
Procedure: as §1

Lung carcinoma = experiment: Neutral red assay, lung carcinoma; type: cell-based; conditions: for GI50: read-out: Average Log(GI50) (converted)
Source text: (§2) Mithramycin-SK was particularly active against melanoma, leukemia, and CNS cancer cells (log(GI50) values of −7.64, −7.59, and −7.61, respectively).

Leukemia cell lines = experiment: Sulforhodamine B assay, 60 cell line panel: leukemia; type: cell-based, human; conditions: for GI50: Homo sapiens, 60 cell, 5 cell lines, read-out: Average Log(GI50) (converted); for AIF (activity improvement factor, 10^Δ1−x): versus 1
Procedure: (§3) The cytotoxicity of Mithramycin-SK and demycarosyl-mithramycin-SK were assessed in a panel of 60 cell lines using a sulforhodamine B assay. It is active against a variety of tumor cell lines in the concentration range of 10^−5 to 10^−8 molar. Cell lines were inoculated into a series of 96-well microliter plates with varying seeding densities depending on the growth characteristics of the particular cell lines. Following a 24 hour drug-free incubation, mithramycin-SK was added routinely at five 10-fold dilutions with maximum concentration of […]. After 48 hours of drug exposure, the change in protein stain optical density allowed the inhibition of cell growth to be analyzed.

[1] = test system: squamous, melanoma, lung, and breast carcinomas; experiment: Neutral red uptake analysis of carcinomas, overall; type: cell-based; conditions: cells not given
Source text: as §2

Renal cancer cell lines = experiment: Sulforhodamine B assay, 60 cell line panel: renal; type: cell-based, human; conditions: for GI50: Homo sapiens, 60 cell, 8 cell lines, read-out: Average Log(GI50) (converted); for AIF (activity improvement factor, 10^Δ1−x): versus 1
Procedure: as §3

Melanoma = experiment: Neutral red assay, melanoma; type: cell-based; conditions: for GI50: read-out: Average Log(GI50) (converted)
Source text: as §2

[2] = test system: Prostrate cancer cell lines; experiment: Sulforhodamine B assay, 60 cell line panel: prostate; type: cell-based, human; conditions: for GI50: Homo sapiens, 60 cell, 2 cell lines, read-out: Average Log(GI50) (converted); for AIF (activity improvement factor, 10^Δ1−x): versus 1
Procedure: as §3

[3] = test system: Ovarian cancer cell lines; experiment: Sulforhodamine B assay, 60 cell line panel: ovarian; type: cell-based, human; conditions: for GI50: Homo sapiens, 60 cell, 6 cell lines, read-out: Average Log(GI50) (converted); for AIF (activity improvement factor, 10^Δ1−x): versus 1
Procedure: as §3

Breast carcinoma = experiment: Neutral red assay, breast carcinoma; type: cell-based; conditions: for GI50: read-out: Average Log(GI50) (converted)
Source text: as §2

Colon cancer cell lines = experiment: Sulforhodamine B assay, 60 cell line panel: colon; type: cell-based, human; conditions: for GI50: Homo sapiens, 60 cell, 7 cell lines, read-out: Average Log(GI50) (converted); for AIF (activity improvement factor, 10^Δ1−x): versus 1
Procedure: as §3

Breast cancer cell lines = experiment: Sulforhodamine B assay, 60 cell line panel: breast; type: cell-based, human; conditions: for GI50: Homo sapiens, 60 cell, 8 cell lines, read-out: Average Log(GI50) (converted); for AIF (activity improvement factor, 10^Δ1−x): versus 1
Procedure: as §3

[4] = test system: 60 human cancer cell lines; experiment: Sulforhodamine B cytotoxicity assay, whole panel of 60 cell lines (NCI); type: cell-based
Procedure: The mithramycin SK has antitumor activity substantially higher than that of MTM and is particularly active against melanoma, leukemia and CNS cancer cells.
as §3

Melanoma cell lines = experiment: Sulforhodamine B assay, 60 cell line panel: melanoma; type: cell-based, human; conditions: for GI50: Homo sapiens, 60 cell, 8 cell lines, read-out: Average Log(GI50) (converted); for AIF (activity improvement factor, 10^Δ1−x): versus 1
Procedure: as §3

CNS cancer cells = experiment: Sulforhodamine B assay, 60 cell line panel: CNS; type: cell-based, human; conditions: for GI50: Homo sapiens, 60 cell, 5 cell lines, read-out: Average Log(GI50) (converted); for AIF (activity improvement factor, 10^Δ1−x): versus 1
Procedure: as §3

Squamous carcinoma = experiment: Neutral red assay, squamous carcinoma; type: cell-based; conditions: for GI50: read-out: Average Log(GI50) (converted)
Source text: as §2

NSCLC cell lines = experiment: Sulforhodamine B assay, 60 cell line panel: NSCLC; type: cell-based, human; conditions: for GI50: Homo sapiens, 60 cell, 8 cell lines, read-out: Average Log(GI50) (converted); for AIF (activity improvement factor, 10^Δ1−x): versus 1
Procedure: as §3

[5] = test system: non-tumorous mouse fibroblast cells (NIH 3T3); experiment: Neutral red toxicity assay on non-tumorous fibroblasts; type: cell-based; conditions: for IC50: NIH3T3, neutral red
Procedure: Mithramycin-SK and demycarosyl-mithramycin-SK were also tested in a neutral red toxicity assay. In this experiment, non-tumorous mouse fibroblast cells were used (NIH 3T3).
as §2

[6] = mouse 3T3 fibroblast (nontumor) cells
[7] = concentration 1 × 10^−4.6 molar

Structure (SMILES)	Percent Growth in 48 Hours, Lung (NCI-H460) (Lung (NCI-H460); concentration 1 × 10^−5 molar)	Percent Growth in 48 Hours, Breast (MCF-7) (Breast (MCF-7))	Percent Growth in 48 Hours, CNS (SF-268) (CNS (SF-268); concentration 1 × 10^−5 molar)	GI50 (Lung carcinoma)	GI50 (Leukemia cell lines)	AIF (activity improvement factor, 10^Δ1−x) (Leukemia cell lines)	GI50 (Renal cancer cell lines)	AIF (activity improvement factor, 10^Δ1−x) (Renal cancer cell lines)	GI50 (Melanoma)	GI50 [2]	AIF (activity improvement factor, 10^Δ1−x) [2]	GI50 [3]	AIF (activity improvement factor, 10^Δ1−x) [3]	GI50 (Breast carcinoma)	GI50 (Colon cancer cell lines)	AIF (activity improvement factor, 10^Δ1−x) (Colon cancer cell lines)	GI50 (Breast cancer cell lines)	GI50 (Melanoma cell lines)	GI50 (CNS cancer cells)	GI50 (NSCLC cell lines)	also measured
CO[C@@H]1C(=O)C(C(C)=O)=C(O)[C@@]2(O[C@H]3C[C@@H](O[C@H]4C[C@@H](O[C@H]5C[C@](C)(O)[C@H](O)[C@@H](C)O5)[C@@H](O)[C@@H](C)O4)[C@H](O)[C@@H](C)O3)C(=O)c3c(cc4cc(O[C@H]5C[C@@H](O[C@H]6C[C@@H](O)[C@H](O)[C@@H](C)O6)[C@H](O)[C@@H](C)O5)c(C)c(O)c4c3O)C[C@@H]12 [Premithramycin B, reference compound]	>100%	>100%	>100%																		
COC(C(O)C(C)=O)[C@@H]1Cc2cc3cc(OC4CC(OC5CC(O)C(O)C(C)O5)C(O)C(C)O4)c(C)c(O)c3c(O)c2C(=O)[C@H]1OC1CC(OC2CC(OC3CC(C)(O)C(O)C(C)O3)C(O)C(C)O2)C(O)C(C)O1 (stereo partly drawn) [Mithramycin-SK, mithramycin-SK]	0.1%	0.2%	1%	132 nM	25.7 nM	8.7	51.3 nM	3.6	562 nM	33.1 nM	3.8	29.5 nM	8.5	182 nM	47.9 nM	4.7	1290 nM	22.9 nM	24.5 nM	42.7 nM	AIF (activity improvement factor, 10^Δ1−x) (Lung carcinoma; versus 1): 91.2; concentrations revealing antiproliferative activity [1]: < 1 µg/mL; AIF (activity improvement factor, 10^Δ1−x) (Melanoma; versus 1): 15.8; AIF (activity improvement factor, 10^Δ1−x) (Breast carcinoma; versus 1): 61.6; AIF (activity improvement factor, 10^Δ1−x) (Breast cancer cell lines): 0.2; activity, times higher than that of MTM ([4]; compilation of the average log(GI50) values): up to 9 times; antitumor activity compared to parent compound MTM ([4]; initial in vitro anticancer assays by the NCI, 60 human cancer cell lines): up to two orders of magnitude better antitumor activity; AIF (activity improvement factor, 10^Δ1−x) (Melanoma cell lines): 8.3; AIF (activity improvement factor, 10^Δ1−x) (CNS cancer cells): 6.8; GI50 (Squamous carcinoma): 1020 nM; AIF (activity improvement factor, 10^Δ1−x) (Squamous carcinoma; versus 1): 8.9; AIF (activity improvement factor, 10^Δ1−x) (NSCLC cell lines): 4.4; toxicity (concentration still without toxicity) ([5]; NIH 3T3, after 24 hours of incubation): > 200 µg/mL; IC50 [5, 6]: 19600 nM; toxicity compared to parent compound MTM ([5]; in vitro toxicity assay): two orders of magnitude lesser toxicity; fold less toxic than MTM ([5]; mouse 3T3 fibroblast (nontumor) cells, ratio of IC50 values): more than 1500 fold
COC(C(O)C(C)=O)[C@@H]1Cc2cc3cc(OC4CC(OC5CC(O)C(O)C(C)O5)C(O)C(C)O4)c(C)c(O)c3c(O)c2C(=O)[C@H]1OC1CC(OC2CC(O)C(O)C(C)O2)C(O)C(C)O1 (stereo partly drawn) [Demycarosyl-Mithramycin-SK, Demycarosyl-mithramycin-SK]	5%	22%	47%		2820 nM	0.08	7240 nM	0.03		5620 nM	0.02	5890 nM	0.04		4470 nM	0.05	7080 nM	4270 nM	5010 nM	5010 nM	AIF (activity improvement factor, 10^Δ1−x) (Breast cancer cell lines): 0.04; AIF (activity improvement factor, 10^Δ1−x) (Melanoma cell lines): 0.04; AIF (activity improvement factor, 10^Δ1−x) (CNS cancer cells): 0.03; AIF (activity improvement factor, 10^Δ1−x) (NSCLC cell lines): 0.04
CO[C@H](C(=O)[C@@H](O)[C@@H](C)O)[C@@H]1Cc2cc3cc(OC4CC(OC5CC(O)C(O)C(C)O5)C(O)C(C)O4)c(C)c(O)c3c(O)c2C(=O)[C@H]1OC1CC(OC2CC(OC3CC(C)(O)C(O)C(C)O3)C(O)C(C)O2)C(O)C(C)O1 (stereo partly drawn) [Mithramycin]	12%	12%		12000 nM	224 nM		186 nM		8910 nM	126 nM		251 nM		11200 nM	224 nM		257 nM	191 nM	166 nM	186 nM	GI50 (Squamous carcinoma): 9120 nM; IC50 [5, 6]: 3.45 to 12.9 nM
CO[C@@H]1C(=O)C(C(C)=O)=C(O)[C@@]2(O[C@H]3C[C@@H](O)[C@H](O)[C@@H](C)O3)C(=O)c3c(cc4cc(O)cc(O)c4c3O)C[C@@H]12 [Premithramycin A1, reference compound]																					Percent Growth in 48 Hours, Lung (NCI-H460) (Lung (NCI-H460); [7]): 68%; Percent Growth in 48 Hours, CNS (SF-268) (CNS (SF-268); [7]): 93%
